Entries after “also recorded” stand apart in the source; their conditions may differ.
B1: rhIFN-γ: recombinant human IFN-γ from Biolegend (protein, UniProt P01579 24-161, looked up)
Interferon gamma: QDPYVKEAENLKKYFNAGHSDVADNGTLFLGILKNWKEESDRKIMQSQIVSFYFKLFKNFKDDQSIQKSVETIKEDMNVKFFNSNKKKRDDFEKLTNYSVTDLNVQRKAIHELIQVMAELSPAAKTGKRKRSQMLFRG

Tests used:
Type in all cases: cell-based, human
[1] = test system: OSCCs; test: Chemo-drug induced cell death, propidium iodide staining and flow cytometry; settings: patient-derived differentiated OSCCs
Protocol: (§1) OSCCs or OSCSCs were seeded at 1×10^5 cells/well in 24-well plate for 24 h prior to the addition of highly purified NK cells pre-treated with IL-2 (1000 units/ml) for 24 h. NK cells were added to tumor cells at 2:1 effector to target ratio. At time 0 when NK cells were added to the tumor culture, a final concentration of 10 μg/ml of propidium iodide (PI) was also added. The cells were then subsequently tracked for over 72 h using time-lapse microscopy with Nikon Eclipse Ti-E inverted microscope fitted with a culture chamber to provide cells with a stable temperature of 37° C. with 5% CO2. An image was taken every 15 min and a representation is shown at day 1, day 1½, and day 3. OSCSCs but not OSCCs which are lysed take up PI and appear orange in the time-lapse (A). NK cells were left untreated or treated with IL-2 (1000 units/ml), anti-CD16 mAb (3 μg/ml), or a combination of IL-2 (1000 units/ml) and anti-CD16 mAb (3 μg/ml) for 18 h before they were added to ^51Cr-labeled OSCSCs and OSCCs. NK cell-mediated cytotoxicity was determined using a standard 4 h ^51Cr release assay and the lytic units 30/10^6 cells were determined using inverse number of NK cells required to lyse 30% of the target cells×100 (B). NK cells were treated as described in (B) and each NK sample was either cultured in the absence or presence of OSCSCs and OSCCs at an NK cell to target cell ratio of 0.5:1. After an overnight incubation, the supernatants were removed from the co-cultures and the levels of IFN-γ secretion were determined using specific ELISAs. One of minimum three representative experiments is shown in each of (C). The surface expression of MHC class I and CD44 on OSCCs and OSCSCs were assessed with flow cytometric analysis after staining with the respective PE-conjugated antibodies. Isotype control antibodies were used as control. The numbers on the right hand corner are the percentages and the mean channel fluorescence intensities for each histogram (D). The surface expression of CD338 on OSCCs and OSCSCs was assessed by flow cytometric analysis after staining with PE-conjugated CD338 (right graphs in the histogram). Isotype control antibodies were used as control (left graphs in the histograms) (E). OSCCs and OSCSCs were left untreated or treated with 10-80 μg/ml of cisplatin for 18 h, after which the tumor cells were washed with 1×PBS, detached, and stained with propidium iodide (PI) and percent cell death was determined using flow cytometric analysis (F).

[2] = test system: OSCSCs; test: as above
Protocol: as §1

[3] = test system: MP2 tumors; test: Paclitaxel-induced cell death, propidium iodide staining; settings: for cell death: poorly differentiated MP2, 18-20 hours
Protocol: (§2) P-values of <0.05 were obtained for differences between MP2 vs. PL12 and Capan at the concentrations of 10 nM, 200 nM, 600 nM, 1000 nM and […] of Paclitaxel (n=2 per each experimental condition).
(§3) The viability of cells was determined by staining with propidium iodide (n=3/each experimental condition).

[4] = test system: PL12 tumors; test: as above; settings: for cell death: well-differentiated PL12, compared with MP2, 18-20 hours
Protocol: as §2

[5] = test system: NK-supernatant differentiated MP2 tumors; test: as above; settings: for cell death: MP2 differentiated with NK-supernatants 5 days, paclitaxel 10 nM to 600 nM, 18-24 h
Protocol: as §3

[6] = test system: Capan tumors; test: as above
Protocol: as §2

[7] = test system: MP2 tumors; test: Surface expression of CD44, CD54, MHC-class I and B7H1, flow cytometry; settings: rhIFN-γ 200 U/mL, 24 h
Protocol: (§4) Freshly isolated NK cells were left untreated or treated with IL-2 (1000 U/mL) or the combination of anti-CD16 mAb (3 μg/mL) and IL-2 (1000 U/mL) for 18 h before they were used in co-cultures with ^51Cr labeled MP2, and PL12. NK cell-mediated cytotoxicity was determined using 4-hour ^51Cr release assay, and the lytic units 30/10^6 cells were determined using inverse number of NK cells required to lyse 30% of the target cells×100 (n=5 independent experiments). (FIG. 25A). Cells were left untreated or treated with rhTNF-α (20 ng/mL), rhIFN-γ (200 U/mL) or the combination of rhTNF-α (20 ng/mL) and […] (200 U/mL) for 24 h. Afterwards, the cells were detached and the surface expression of CD44, CD54, MHC-class I and B7H1 were assessed using staining with PE conjugated antibodies followed by flow cytometric analysis. Isotype control antibodies were used as controls (FIG. 25B) MP2 and Capan cells were treated as described in FIG. 25A, and were detached from the tissue culture plates, labeled with ^51Cr and used in a standard 4-hour ^51Cr release assay using IL-2 (1000 U/mL) treated NK cells. Pre-treatment of NK cells with IL-2 (1000 U/mL) were carried out for 18-24 h. Percent cytotoxicity was determined at different effector to target ratio and the lytic units 30/10^6 cells were determined using inverse number of NK cells required to lyse 30% of the tumor cells×100 (FIG. 25C).

[8] = test system: MP2; test: Resistance to NK cell mediated cytotoxicity after cytokine treatment, 4-hour 51Cr release assay; settings: rhTNF-α 20 ng/mL or rhIFN-γ 200 U/mL; IL-2 treated NK cells
Protocol: as §4

[9] = stem-like/poorly differentiated OSCSCs, cisplatin 10-80 μg/ml for 18 h in FIG. 1F

| Molecule | cell death [1] | cell death ([2]; NK-differentiated OSCSCs) | cell death [2, 9] | cell death [3] | cell death [4] | cell death [5] | also measured |
| --- | --- | --- | --- | --- | --- | --- | --- |
| N.N.[Cl][Pt][Cl] [CDDP, cis-dichlorodiammineplatinum] | higher cell death | higher cell death | not susceptible to CDDP induced cell death; also recorded: minimal effects | resistant | killed | killed |  |
| CC(=O)N[C@@H](CS)C(=O)O [NAC, N-Acetyl Cysteine] |  |  |  |  |  |  | paclitaxel mediated cell death on addition of NAC ([3]; NAC (20 nM) 24 h, followed by paclitaxel): increased paclitaxel mediated cell death; paclitaxel mediated cell death on addition of NAC ([4]; NAC then paclitaxel): increased paclitaxel mediated cell death; paclitaxel mediated cell death on addition of NAC ([6]; NAC then paclitaxel): increased paclitaxel mediated cell death; paclitaxel mediated cell death on addition of NAC ([5]; NAC (20 nM) 24 h, followed by paclitaxel 10 nM to 600 nM): increased cell death; also recorded: increased paclitaxel mediated death |
| CC(=O)O[C@H]1C(=O)[C@@]2(C)[C@H]([C@H](OC(=O)c3ccccc3)[C@]3(O)C[C@H](OC(=O)[C@H](O)[C@@H](NC(=O)c4ccccc4)c4ccccc4)C(C)=C1C3(C)C)[C@]1(OC(C)=O)CO[C@@H]1C[C@@H]2O [paclitaxel] | higher cell death | higher cell death | minimal effects | resistant | much higher levels of cell death; also recorded: higher induction of cell death; also recorded: killed | higher induction of cell death; also recorded: killed | cell death ([6]; well-differentiated Capan, compared with MP2, 18-20 hours): much higher levels of cell death; also recorded: higher induction of cell death |
| rhIFN-γ: recombinant human IFN-γ from Biolegend |  |  |  |  |  |  | surface expression of B7H1 [7]: able to upregulate B7H1; surface expression of CD44, CD54, MHC-class I and B7H1 ([7]; rhTNF-α 20 ng/mL): increase surface expression of CD54 and MHC-class I |
| B1 |  |  |  |  |  |  | resistance against NK cell mediated cytotoxicity [8]: significant resistance |

— patent publication US20220381772A1, “SYSTEMS AND METHODS FOR EVALUATING NK CELLS” (The Regents of The University of California, priority 2019, published 2022)
